These are literature values, as cited in patent publication US9374996B2, “Agroformulation comprising copolymer of acrylic acid, poly(alkylene glycol) (meth)acrylate, and alkyl (meth)acrylate” (priority 2012, dated 2016).

The structures appear in SMILES notation. In brackets after ≈: the same amount, converted by molar mass.

The conditions of the series: at 20° C.

In the case of `Cn1cc(C(=O)Nc2ccccc2-c2cc(F)c(F)c(F)c2)c(C(F)F)n1` [fluxapyroxad], the solubility in water is 3.88 µg/mL (≈ 10.2 µM).
